Laboratory results published in US20200078323A1, “METHOD OF TREATING OVARIAN CANCER USING ZETA-STAT” (University of South Florida, priority 2018, published 2020).
“Also recorded” adds a separate entry of the source.

Columns and labels:
PKC-ζ = target: T1, PKC-ζ (Homo sapiens, UniProt Q05513); assay: Protein expression of PKC-ζ in TOV21G and ES-2 cells; assay type: cell-based; settings: protein and genomic studies
T1 construct: Protein expression of PKC-ζ and RhoA of TOV21G and ES-2 cells when treated for 72 hours with DMSO and ζ-Stat; endogenous in cells; host or cells: TOV21G and ES-2 cells
T1 sequence (Q05513 1-592): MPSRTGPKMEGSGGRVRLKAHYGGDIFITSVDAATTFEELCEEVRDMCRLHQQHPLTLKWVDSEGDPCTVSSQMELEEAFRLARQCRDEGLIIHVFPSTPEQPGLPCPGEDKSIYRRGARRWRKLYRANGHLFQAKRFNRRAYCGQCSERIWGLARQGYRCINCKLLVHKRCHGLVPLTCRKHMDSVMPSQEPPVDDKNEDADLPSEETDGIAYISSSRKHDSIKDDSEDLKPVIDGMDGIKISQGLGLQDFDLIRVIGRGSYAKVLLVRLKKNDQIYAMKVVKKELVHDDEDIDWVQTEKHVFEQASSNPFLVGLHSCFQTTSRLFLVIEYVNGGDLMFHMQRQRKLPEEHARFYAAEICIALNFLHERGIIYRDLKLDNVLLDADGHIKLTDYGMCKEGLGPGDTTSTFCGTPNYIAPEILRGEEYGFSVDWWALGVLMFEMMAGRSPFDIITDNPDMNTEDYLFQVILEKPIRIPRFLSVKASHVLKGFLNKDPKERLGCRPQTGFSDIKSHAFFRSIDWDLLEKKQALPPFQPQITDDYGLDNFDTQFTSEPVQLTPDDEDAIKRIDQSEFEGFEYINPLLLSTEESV
Experimental: (§1) FIGS. 3A-3B. Protein expression of […] and […] of TOV21G and ES-2 cells when treated for 24, 48, and 72 hours with DMSO, ICA-1, and ζ-Stat. (FIG. 3A) TOV21G protein expression levels with treatments and quantified N=3. (FIG. 3B) ES-2 protein expression levels with treatments and quantified N=3.
(§2) FIGS. 4A-4B. Protein expression of PKC-ζ and RhoA of TOV21G and ES-2 cells when treated for 72 hours with DMSO and ζ-Stat and genomic expression of RhoA in TOV21G. (FIG. 4A) TOV21G and ES-2 protein expression after 72 hours of treatment. (FIG. 4B) TOV21G genomic expression of RhoA with ζ-Stat treatment after 72 hours of treatment.

ES-2 cells = assay: Proliferation of ES-2 cells treated with ζ-Stat (cellometer count, WST-1); assay type: cell-based; settings: 24, 48 and 72 hours, control DMSO
Experimental: (§3) FIGS. 2A-2C. Proliferation curves for ES-2 cells treated with ζ-Stat. ES-2 cells were treated with ζ-Stat for 24, 48, and 72 hours. The control cells were treated with DMSO. (FIG. 2A) Treatments counted on a cellometer. (FIG. 2B) Standard curve for ES-2 cells in WST-1 reagent. (FIG. 2C) Treatments after 72 hours measured using WST-1 reagent.
(§4) Ovarian cancer is the most lethal gynecological cancer. […] The most common ovarian cancer diagnosis is epithelial ovarian carcinomas, which constitute for 85-90% of prognosis. Of epithelial ovarian carcinomas, clear cell ovarian carcinoma (CCOC) represents 5% of incidence. CCOC presents unique pathological features and has a high reoccurrence rate after treatment. An overexpression of atypical PKCs (PKC-ζ and PKC-ι/λ) has been observed in various malignant cell lines and is linked to pathways for cellular proliferation and invasion. Ovarian cell lines (TOV21G and ES-2) were treated with the atypical PKC-ζ inhibitor ζ-Stat (8-hydroxynaphthalene-1,3,6-trisulfonic acid) and assayed to determine the effects on proliferation and cellular invasion. […] Tumor growth in athymic female mice is decreased when treated with ζ-Stat and the mouse body weight is maintained. Thus, PKC-ζ is identified herein as a novel target in carcinogenesis and inhibition of this protein decreases the rate of proliferation.

CCOC cells = assay: Wound healing / cellular invasion of CCOC cells; assay type: cell-based
Source text: as §4

RhoA = assay: Protein and genomic expression of RhoA in TOV21G cells; assay type: cell-based; settings: 72 hours
Experimental: as §2

TOV21G xenographs = assay: TOV21G xenograph tumor growth in athymic female nude mice; assay type: in vivo; settings: 20 mg/kg, every other day, subcutaneously intra-tumor and around the tumor site
Experimental: (§5) FIGS. 5A-5C. In-vivo TOV21G xenographs treated with 1×DPBS (vehicle, N=6) and 20 mg/kg ζ-Stat (N=6) for 30 days. (FIG. 5A) Tumor growth (mm^3) for the control mice and the treatment mice. The graph at the bottom represents the average body weight of the mice throughout the treatment period. (FIG. 5B) Tumors extracted at the endpoint of the experiment. The graph below represents the size of tumors from the treatment group represented as the percentage of the control. (FIG. 5C) Enzyme panel tested after the endpoint of the experiment. The bars represent glucose, BUN, ALT, AST and ALKP levels.
(§6) Effects of ζ-Stat on athymic mice ovarian xenograph were tested. Twelve athymic female nude mice weighing between 20-25 g and more than 10 weeks of age were used. The mice were divided into two groups after TOV21G cells (CRL-11730, American Type Culture Collection) were implanted (A million cells/mouse flank in 0.2 ml of media). The first group was the control group (n=6), which received 100 μl of DPBS (21-031-CM, Corning Cellgro, VA). The second group (n=6) received 100 μl of 20 mg/kg of ζ-Stat dissolved in DPBS. The tumor volume was calculated using the formula: length×width×width×½. Three days after implantation of the cells, the tumors were treated as of day 0. The treatments were administered every other day subcutaneously intra-tumor and around the tumor site for […].

[1] = Toxicity and body weight in xenograph mice (enzyme panel, body weight); assay type: in vivo
Experimental: as §5, §6

TOV21G cells = assay: Proliferation of TOV21G cells treated with ζ-Stat (cellometer count, WST-1); assay type: cell-based; settings: 24, 48 and 72 hours, control DMSO
Experimental: as §3, with “1A-1C.” for “2A-2C.”, “TOV21G” for “ES-2”, “1A)” for “2A)”, “1B)” for “2B)”, “1C)” for “2C)”
as §4

PKC-ι = target: T2, PKC-ι (Homo sapiens, UniProt P41743); assay: Protein expression of PKC-ι in TOV21G and ES-2 cells; assay type: cell-based; settings: protein and genomic studies
T2 construct: endogenous in cells; host or cells: TOV21G and ES-2 cells
T2 sequence (P41743 1-596): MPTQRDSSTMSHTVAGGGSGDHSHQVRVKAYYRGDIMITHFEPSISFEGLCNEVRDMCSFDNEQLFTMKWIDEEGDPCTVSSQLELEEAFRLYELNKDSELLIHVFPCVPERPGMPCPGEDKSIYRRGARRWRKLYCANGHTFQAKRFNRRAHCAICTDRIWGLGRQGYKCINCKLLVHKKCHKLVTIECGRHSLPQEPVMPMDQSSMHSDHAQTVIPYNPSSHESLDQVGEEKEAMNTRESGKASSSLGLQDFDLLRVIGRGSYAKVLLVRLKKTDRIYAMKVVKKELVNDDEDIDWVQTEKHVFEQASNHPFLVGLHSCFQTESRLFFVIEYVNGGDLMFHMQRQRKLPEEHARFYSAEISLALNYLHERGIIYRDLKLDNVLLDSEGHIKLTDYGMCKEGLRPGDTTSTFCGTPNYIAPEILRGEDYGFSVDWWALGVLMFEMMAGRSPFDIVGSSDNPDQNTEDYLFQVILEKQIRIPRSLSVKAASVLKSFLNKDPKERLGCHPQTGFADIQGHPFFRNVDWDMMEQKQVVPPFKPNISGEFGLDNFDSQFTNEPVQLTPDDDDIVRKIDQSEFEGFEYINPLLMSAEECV
Experimental: as §1

## O=S(=O)(O)c1cc(O)c2c(S(=O)(=O)O)cc(S(=O)(=O)O)cc2c1 [ζ-Stat, 8-hydroxynaphthalene-1,3,6-trisulfonic acid]
PKC-ζ
  expression of PKC-ζ: knocks down the expression of PKC-ζ
ES-2 cells
  proliferation of ES-2 cells: decreased
CCOC cells
  wound healing: decreased wound healing
RhoA
  expression of RhoA at the genomic level: knocks down the expression of RhoA
  expression of RhoA at the protein level: knocks down the expression of RhoA
TOV21G xenographs
  tumor growth: decreased; also recorded: reduced
[1]; athymic female mice treated with ζ-Stat
  mouse body weight: maintained
[1]; mice, 20 mg/kg, after 30 days of treatment
  toxic effect: did not have a toxic effect
TOV21G cells
  proliferation of TOV21G cells: decreased
PKC-ι
  expression of PKC-ι: not the expression of PKC-ι
